In test [1] the test system is Molm13 PA and Molm13 RE (acute myeloid leukemia) cells. Put plainly: Relative cell growth by cell count, Molm13 PA and Molm13 RE cells. The settings on record: concentrations between 0 and 10 μM, after 10 days, effect with increased concentration. In kind it is cell-based. The method, then:
(§1) FIGS. 12A-12D show a Western blot of an assay where MOLM 13 cells were treated with exemplary DOT1L degraders and then the cell numbers were counted over time to confirm the cellular activity of the cells. FIGS. 12A-12D show the relative cell growth (%), based on a cell count of acute myeloid leukemia cells upon the treatment of Molm13 PA cells, Molm13 RE cells, and human leukemia (HL60; as negative control) cells with exemplary DOT1L degraders at various concentrations in for 10 days.
(§2) Molm13 PA (acute myeloid leukemia), Molm13 RE (acute myeloid leukemia), and HL60 (human leukemia) cells were treated with exemplary thalidomide-based, DOT1L degrader compounds DOT1L-6, DOT1L-7, DOT1L-8, and RA190 at various concentrations between 0 and 10 μM. The relative cell growth of the Molm13 PA, Molm13 RE, and HL60 cells was measured to analyze cellular activity after 10 days.

In test [2] the test system is HL60 (human leukemia) cells. Briefly: Relative cell growth by cell count, HL60 cells (negative control line). It is filed as cell-based. As to conditions: concentrations between 0 and 10 μM, after 10 days, effect with increased concentration. As to the method:
as §1, §2

Another test addresses RPN13 (Homo sapiens, UniProt Q16186). Briefly: Biochemical (alpha signal) assay for inhibitors that disrupt the binding of RPN13 with poly-ubiquitinylation. The settings on record: FIG. 9C. From the text: The assay was optimized based on concentrations of the target inhibitors, concentrations of compound RA190, and in view of the alpha signal. The conditions for the biochemical assay are recognized by those of ordinary skill in the art.

Chain of RPN13 (Q16186 whole entry): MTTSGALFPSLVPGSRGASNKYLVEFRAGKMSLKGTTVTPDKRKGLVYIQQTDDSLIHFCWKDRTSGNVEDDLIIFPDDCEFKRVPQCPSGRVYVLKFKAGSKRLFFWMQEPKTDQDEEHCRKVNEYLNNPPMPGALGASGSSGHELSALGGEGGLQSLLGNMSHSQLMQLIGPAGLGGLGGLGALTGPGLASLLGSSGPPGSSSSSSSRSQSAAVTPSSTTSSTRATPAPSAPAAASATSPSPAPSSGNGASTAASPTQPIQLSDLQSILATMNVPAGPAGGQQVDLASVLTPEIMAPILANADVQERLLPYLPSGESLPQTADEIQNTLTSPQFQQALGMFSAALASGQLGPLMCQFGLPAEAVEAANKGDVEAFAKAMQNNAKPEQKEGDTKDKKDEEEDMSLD

With `N[C@@H](Cc1ccccc1)C(=O)N1C/C(=C\c2ccc(Cl)c(Cl)c2)C(=O)/C(=C/c2ccc(Cl)c(Cl)c2)C1` [RA190], the “Relative cell growth (based on cell count)” value in test [1] and in test [2] was “reduced cell growth” each time. Further, on RPN13, the “Disruption of the binding of RPN13 with poly-ubiquitinylation” value is given as “can disrupt the binding”.

Values taken from US12331069B2, “DOT1L degraders and uses thereof” (DANA-FARBER CANCER INSTITUTE, INC., priority 2019, dated 2025).
